Values joined by “and” are separate entries in the source; they are usually repeats but may differ in a detail not shown here. Identical values can stand only once. Inconclusive results and toxic doses are left out. Rule as the data show it: active = T/C of 150% or more; inactive = T/C below 125%.
System: L1210 leukemia ip in BDF1 mice, survival T/C
Experiment: NCI In Vivo Anticancer Drug Screen. Data for tumor model L1210 Leukemia (intraperitoneal) in B6D2F1 (BDF1) mice
Details: endpoint: mean survival time, higher = longer survival
In short: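 Transplantable tumor model; survival measured in treated vs vehicle control mice. Value = treated/control.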

[1] = dose: 25.0 mg/kg/injection, schedule: Q01DX009 (ip), vehicle: saline
[2] = dose: 50.0 mg/kg/injection, schedule: Q01DX009 (ip), vehicle: saline
[3] = dose: 100.0 mg/kg/injection, schedule: Q01DX009 (ip), vehicle: saline
[4] = dose: 200.0 mg/kg/injection, schedule: Q01DX009 (ip), vehicle: saline
[5] = dose: 150.0 mg/kg/injection, schedule: Q01DX001 (ip), vehicle: saline
[6] = dose: 12.5 mg/kg/injection, schedule: Q01DX009 (ip), vehicle: saline with Tween-80
[7] = dose: 25.0 mg/kg/injection, schedule: Q01DX009 (ip), vehicle: saline with Tween-80
[8] = dose: 100.0 mg/kg/injection, schedule: Q04DX003 (ip), vehicle: saline with Tween-80
[9] = dose: 50.0 mg/kg/injection, schedule: Q01DX009 (ip), vehicle: saline with Tween-80

Measured: T/C

COc1cccc(/C=N/N=C(N)N)c1
inactive: dose: 15.0 mg/kg/injection, schedule: Q01DX Z (ip), vehicle: saline 94 % of control | dose: 30.0 mg/kg/injection, schedule: Q01DX Z (ip), vehicle: saline 97 % of control | dose: 30.0 mg/kg/injection, schedule: Q01DX Z (oral), vehicle: saline 104 % of control | dose: 60.0 mg/kg/injection, schedule: Q01DX Z (ip), vehicle: saline 92 % of control | dose: 60.0 mg/kg/injection, schedule: Q01DX Z (oral), vehicle: saline 104 % of control | dose: 120.0 mg/kg/injection, schedule: Q01DX Z (oral), vehicle: saline 101 % of control

NC(CCC(=O)NC(CSC(c1ccccc1)(c1ccccc1)c1ccccc1)C(=O)NCC(=O)O)C(=O)O (stereo unspecified)
inactive: [1] 109 % of control | [2] 104 % of control and 114 % of control | [3] 107 % of control and 113 % of control | [4] 124 % of control | dose: 300.0 mg/kg/injection, schedule: Q01DX009 (ip), vehicle: saline 90 % of control

COc1ccccc1NC(=O)C(N=Nc1ccc(S(=O)(=O)Nc2onc(C)c2C)cc1)C(C)=O (stereo unspecified)
inactive: dose: 75.0 mg/kg/injection, schedule: Q01DX001 (ip), vehicle: saline 92 % of control | [5] 94 % of control | dose: 300.0 mg/kg/injection, schedule: Q01DX001 (ip), vehicle: saline 87 % of control

CC(N)CCc1ccccc1 (stereo unspecified)
inactive: dose: 10.0 mg/kg/injection, schedule: Q01DX001 (ip), vehicle: saline 105 % of control | dose: 12.5 mg/kg/injection, schedule: Q01DX009 (ip), vehicle: saline 97 % of control | dose: 12.5 mg/kg/injection, schedule: Q04DX003 (ip), vehicle: saline 102 % of control | dose: 20.0 mg/kg/injection, schedule: Q01DX001 (ip), vehicle: saline 101 % of control | [1] 95 % of control | dose: 25.0 mg/kg/injection, schedule: Q04DX003 (ip), vehicle: saline 112 % of control | dose: 40.0 mg/kg/injection, schedule: Q01DX001 (ip), vehicle: saline 95 % of control | [2] 97 % of control | dose: 50.0 mg/kg/injection, schedule: Q04DX003 (ip), vehicle: saline with Tween-80 90 % of control | dose: 50.0 mg/kg/injection, schedule: Q04DX003 (ip), vehicle: saline 104 % of control | dose: 80.0 mg/kg/injection, schedule: Q01DX001 (ip), vehicle: saline 101 % of control | dose: 100.0 mg/kg/injection, schedule: Q01DX001 (ip), vehicle: saline 100 % of control

O=C(C=C(C(F)(F)F)C(F)(F)F)c1cccc(C(F)(F)F)c1
inactive: [6] 102 % of control | [7] 95 % of control | [8] 89 % of control

COc1c2c(c(OC)c3c1c(=O)c1ccccc1n3C)OCO2
inactive: dose: 100.0 mg/kg/injection, schedule: Q01DX001 (ip), vehicle: carboxymethylcellulose (CMC) 102 % of control | dose: 200.0 mg/kg/injection, schedule: Q01DX001 (ip), vehicle: carboxymethylcellulose (CMC) 98 % of control | dose: 300.0 mg/kg/injection, schedule: Q01DX001 (ip), vehicle: carboxymethylcellulose (CMC) 102 % of control | dose: 400.0 mg/kg/injection, schedule: Q01DX001 (ip), vehicle: carboxymethylcellulose (CMC) 96 % of control | dose: 500.0 mg/kg/injection, schedule: Q01DX001 (ip), vehicle: carboxymethylcellulose (CMC) 93 % of control

O=C1C=C/C(=N/c2ccc(O)o2)c2ccccc21
inactive: [5] 100 % of control

C=CCN(CC#N)CC#N
inactive: dose: 5.0 mg/kg/injection, schedule: Q04DX003 (ip), vehicle: Klucel (hydroxypropylcellulose) (HPC) 98 % of control | dose: 10.0 mg/kg/injection, schedule: Q04DX003 (ip), vehicle: Klucel (hydroxypropylcellulose) (HPC) 100 % of control (2×) and 86 % of control

Cc1ccc2c(c1)CCCN2C=O
inactive: [9] 95 % of control | dose: 100.0 mg/kg/injection, schedule: Q01DX009 (ip), vehicle: saline with Tween-80 93 % of control | [8] 102 % of control | dose: 200.0 mg/kg/injection, schedule: Q01DX009 (ip), vehicle: saline with Tween-80 102 % of control | dose: 200.0 mg/kg/injection, schedule: Q04DX003 (ip), vehicle: saline with Tween-80 94 % of control

NC(Cc1ccccc1)c1ccc2oc3ccccc3c2c1 (stereo unspecified)
inactive: dose: 100.0 mg/kg/injection, schedule: Q01DX001 (ip), vehicle: Klucel (hydroxypropylcellulose) (HPC) 96 % of control | dose: 200.0 mg/kg/injection, schedule: Q01DX001 (ip), vehicle: Klucel (hydroxypropylcellulose) (HPC) 100 % of control | dose: 400.0 mg/kg/injection, schedule: Q01DX001 (ip), vehicle: Klucel (hydroxypropylcellulose) (HPC) 103 % of control

Cc1ccccc1-n1nnnc1N
inactive: dose: 100.0 mg/kg/injection, schedule: Q04DX003 (ip), vehicle: saline 102 % of control | dose: 200.0 mg/kg/injection, schedule: Q04DX003 (ip), vehicle: saline 96 % of control | dose: 400.0 mg/kg/injection, schedule: Q04DX003 (ip), vehicle: saline 98 % of control

Cn1c2c(sc1=O)CCC2
inactive: dose: 50.0 mg/kg/injection, schedule: Q01DX Z (ip), vehicle: methylcellulose (MC) 102 % of control and 105 % of control | dose: 100.0 mg/kg/injection, schedule: Q01DX001 (ip), vehicle: other 103 % of control | dose: 100.0 mg/kg/injection, schedule: Q01DX Z (ip), vehicle: methylcellulose (MC) 111 % of control | dose: 100.0 mg/kg/injection, schedule: Q04DX003 (ip), vehicle: Klucel (hydroxypropylcellulose) (HPC) 99 % of control | dose: 200.0 mg/kg/injection, schedule: Q01DX001 (ip), vehicle: other 111 % of control | dose: 200.0 mg/kg/injection, schedule: Q01DX Z (ip), vehicle: methylcellulose (MC) 93 % of control | dose: 200.0 mg/kg/injection, schedule: Q04DX003 (ip), vehicle: Klucel (hydroxypropylcellulose) (HPC) 100 % of control | dose: 400.0 mg/kg/injection, schedule: Q01DX001 (ip), vehicle: other 105 % of control

c1cc2c(c(NC3=NCCN3)c1)CCCC2
inactive: [6] 98 % of control | [7] 93 % of control | [9] 95 % of control

CCC[CH2][Sn]1([CH2]CCC)[O]CC[S]1
inactive: dose: 5.0 mg/kg/injection, schedule: Q01DX001 (ip), vehicle: saline 111 % of control

OCC/C=C/CCCO
inactive: [3] 97 % of control | [4] 96 % of control | dose: 400.0 mg/kg/injection, schedule: Q01DX009 (ip), vehicle: saline 94 % of control

NOCC(=O)O
inactive: dose: 5.0 mg/kg/injection, schedule: Q01DX Z (ip), vehicle: saline 112 % of control | dose: 8.0 mg/kg/injection, schedule: Q01DX Z (ip), vehicle: saline 97 % of control | dose: 12.0 mg/kg/injection, schedule: Q01DX Z (ip), vehicle: saline 103 % of control | dose: 12.5 mg/kg/injection, schedule: Q01DX001 (ip), vehicle: carboxymethylcellulose (CMC) 106 % of control | dose: 18.0 mg/kg/injection, schedule: Q01DX Z (ip), vehicle: saline 103 % of control | dose: 25.0 mg/kg/injection, schedule: Q01DX001 (ip), vehicle: carboxymethylcellulose (CMC) 97 % of control | dose: 50.0 mg/kg/injection, schedule: Q01DX001 (ip), vehicle: carboxymethylcellulose (CMC) 95 % of control

Cc1c(-c2ccccc2)n(O)[n+]([O-])c1-c1ccccc1
inactive: dose: 50.0 mg/kg/injection, schedule: Q01DX009 (ip), vehicle: Klucel (hydroxypropylcellulose) (HPC) 98 % of control | dose: 100.0 mg/kg/injection, schedule: Q01DX009 (ip), vehicle: Klucel (hydroxypropylcellulose) (HPC) 94 % of control | dose: 200.0 mg/kg/injection, schedule: Q01DX009 (ip), vehicle: Klucel (hydroxypropylcellulose) (HPC) 94 % of control

CNC(=O)Oc1ccc([N+](=O)[O-])cc1
inactive: dose: 75.0 mg/kg/injection, schedule: Q01DX001 (ip), vehicle: other 101 % of control | dose: 150.0 mg/kg/injection, schedule: Q01DX001 (ip), vehicle: other 101 % of control | dose: 300.0 mg/kg/injection, schedule: Q01DX001 (ip), vehicle: other 104 % of control

Reference: PubChem BioAssay AID248 (DTP/NCI, 2004)
